What was measured:
Colon = assay: Drug absorption in anesthetized rat colon at pH 6.8; type: ADME, tissue-based; conditions: in vivo
Small intestine = assay: Drug absorption in rat small intestine; type: ADME, tissue-based; conditions: in vivo
Neuron = assay: Increase in membrane potential in mollusc neurons assessed as conductance of potassium at pH 7.8 relative to salicylic acid; type: functional, Mollusca
physchem [1] = conditions: octanol/water
Description: Octanol-water partition coefficient, log P of the compound

physchem [2] = conditions: octanol/aqueous phase
physchem [3] = assay: physchem
physchem [4] = conditions: pH 7.8
Description: Dissociation constant, pKa of the compound at pH 7.8

[5] = octanol/water
[6] = Dissociation constant, pKa of the compound at pH 5.3; type: physicochemical
physchem [7] = conditions: octanol/aqueous phase; remark: listed apart in the source
Description: Octanol-aqueous phase partition coefficient, log P of the compound

physchem [8] = conditions: pH 6.8
Description: Dissociation constant, pKa of the compound at pH 6.8

[9] = Octanol-aqueous phase distribution coefficient, log D of the compound at pH 7; type: physicochemical
[10] = Octanol-aqueous phase distribution coefficient, log D of the compound at pH 8; type: physicochemical
[11] = Uncoupling of oxidative phosphorylation in rat liver mitochondria at pH 5 relative to control; type: functional
[12] = Uncoupling of oxidative phosphorylation in rat liver mitochondria at pH 6 relative to control; type: functional
[13] = Uncoupling of oxidative phosphorylation in rat liver mitochondria at pH 7 relative to control; type: functional
[14] = Uncoupling of oxidative phosphorylation in rat liver mitochondria at pH 8 relative to control; type: functional
[15] = Octanol-aqueous phase distribution coefficient, log D of the compound at pH 5; type: physicochemical
[16] = Octanol-aqueous phase distribution coefficient, log D of the compound at pH 6; type: physicochemical

Compound	log%Abs (Colon)	fold change (FC) (Neuron)	logP (physchem [1])	logD (physchem [2])	pKa (physchem [3])	pKa (physchem [4])	logD [5]	other results
C=C[C@H]1C[N@@]2CC[C@H]1C[C@H]2[C@H](O)c1ccnc2ccc(OC)cc12 [QUININE]	1.3	–	–	–	–	–	–	log%Abs (Small intestine): 1.18
O=C(O)c1cc(I)cc(I)c1O	–	2	4.78	-0.69	2.33	5.47	–	–
O=C(O)c1ccc(O)cc1O [2,4-DIHYDROXYBENZOIC ACID]	–	-1	1.6	-1.5	4.7	–	–	–
O=C(O)c1ccc([N+](=O)[O-])cc1 [4-NITROBENZOIC ACID]	–	-0.52	1.89	–	3.41	4.39	-2.5	–
CN[C@@H](C)[C@H](O)c1ccccc1 [EPHEDRINE]	0.95	–	–	–	–	–	–	log%Abs (Small intestine): 0.85
O=C(O)c1cc(Br)cc(Br)c1O	–	1.6	4.21	-1.33	2.26	5.54	–	–
O=C(O)c1cc(Cl)ccc1O [5-CHLOROSALICYLIC ACID]	–	1	3.02	-2.15	2.63	5.17	–	–
O=C(O)c1cccc(O)c1 [3-HYDROXYBENZOIC ACID]	–	-1	1.5	–	–	3.74	-2.24	–
COc1ccc(O)c(C(=O)O)c1	–	0.18	2.41	-2.53	2.86	4.94	–	–
O=C(O)c1cc([N+](=O)[O-])cc([N+](=O)[O-])c1O [3,5-DINITROSALICYLIC ACID]	–	0	2.21	–	1.55	6.25	-4.04	–
Nc1cccc([N+](=O)[O-])c1 [3-NITROANILINE]	1.68	–	–	1.37	–	–	–	pKa [6]: 2.8; log%Abs (Small intestine): 1.89; logP (physchem [7]): 1.37; pKa (physchem [8]): 4.3
CCCCC1C(=O)N(c2ccccc2)N(c2ccccc2)C1=O [PHENYLBUTAZONE]	1.58	–	–	–	–	–	–	–
Cc1ccc(N)cc1	1.71	–	–	–	–	–	–	pKa [6]: 0; log%Abs (Small intestine): 1.77; pKa (physchem [8]): 1.5
O=C(O)c1ccc(Cl)c(Cl)c1	–	0.93	3.46	–	3.66	4.14	-0.68	–
O=[N+]([O-])c1cccc(O)c1 [3-NITRO-PHENOL]	1.64	–	–	2	–	–	–	logP (physchem [7]): 2; pKa (physchem [8]): 1.4
O=C(O)c1cc(O)ccc1O [GENTISIC ACID]	–	-0.7	–	–	–	4.83	–	–
O=C(O)c1cccc(Br)c1	–	0.48	2.84	–	–	3.94	-1.1	–
O=[N+]([O-])c1ccc(O)cc1 [P-NITROPHENOL]	–	–	–	–	–	–	–	logD [9]: 1.66; logD [10]: 0.96; fold change (FC) [11]: 3.3; fold change (FC) [12]: 3.37; fold change (FC) [13]: 3.51; fold change (FC) [14]: 3.39; logD [15]: 1.96; logD [16]: 1.96; logP (physchem [7]): 1.96
O=C(O)c1c(O)cccc1O	–	0.18	2.2	-2.9	2.7	5.1	–	–
c1ccc(CC2=NCCN2)cc1 [TOLAZOLINE]	0.6	–	–	-2.35	–	–	–	pKa [6]: 5; log%Abs (Small intestine): 0.78; logP (physchem [7]): 2.65; pKa (physchem [8]): 3.5
Nc1ccccc1 [ANILINE]	1.64	–	–	0.82	–	–	–	log%Abs (Small intestine): 1.73
O=[N+]([O-])c1ccccc1O [NITROPHENOLATE]	1.74	–	–	1.58	–	–	–	logP (physchem [7]): 1.79; pKa (physchem [8]): 0.2

Compound	log%Abs (Colon)	fold change (FC) (Neuron)	logP (physchem [1])	logD (physchem [2])	pKa (physchem [3])	pKa (physchem [4])	logD [5]	other results
CC(C)Cc1cc([N+](=O)[O-])c(O)c([N+](=O)[O-])c1	–	–	–	–	4.3	–	–	logD [9]: 0.62; logD [10]: -0.38; fold change (FC) [11]: 5.16; fold change (FC) [12]: 4.88; fold change (FC) [13]: 4.71; fold change (FC) [14]: 4.48; logD [15]: 2.52; logD [16]: 1.62; logP (physchem [7]): 3.32
Oc1ccccc1 [PHENOL]	1.55	–	–	–	–	–	–	–
O=C(O)c1cccc([N+](=O)[O-])c1	1	-0.7	1.83	–	3.47	4.33	-2.5	logP (physchem [7]): 1.83; pKa (physchem [8]): 3.4
O=C(O)c1cccc(I)c1	–	0.6	3.13	–	4	–	-0.67	–
Cc1c(N(C)C)c(=O)n(-c2ccccc2)n1C [AMINOPYRINE]	1.32	–	–	–	–	–	–	pKa [6]: 0.3; log%Abs (Small intestine): 1.52; pKa (physchem [8]): 1.8
O=C(O)c1ccc(I)cc1	–	0.54	3.02	–	3.91	3.89	-0.87	–
CC(=O)Nc1ccccc1 [ACETANILIDE]	1.56	–	–	1.16	–	–	–	pKa [6]: 5; log%Abs (Small intestine): 1.62; pKa (physchem [8]): 6.5
Nc1ccc([N+](=O)[O-])cc1 [4-NITROANILINE]	1.7	–	–	–	–	–	–	log%Abs (Small intestine): 1.83
O=C(O)c1cc(I)ccc1O	–	1.43	3.52	-1.63	2.65	5.15	–	–
Cn1c(=O)c2[nH]cnc2n(C)c1=O.O [THEOPHYLLINE]	–	–	–	-0.78	–	–	–	log%Abs (Small intestine): 1.46; logP (physchem [7]): -0.78
O=C(O)c1ccc(Br)cc1	–	0.4	2.86	–	3.98	3.82	-0.96	–
O=C(O)c1ccccc1Cl	–	-0.7	1.98	–	–	4.88	-2.9	–
O=C(O)c1cccc(Cl)c1	–	0.18	2.68	–	–	3.98	-1.3	–
Cc1ccc(C(=O)O)cc1 [4-METHYLBENZOIC ACID]	–	–	–	–	–	3.44	-2.09	–
Cc1cc(=O)n(-c2ccccc2)n1C [ANTIPYRINE]	1.3	–	–	–	–	–	–	pKa [6]: 3.9; log%Abs (Small intestine): 1.51; pKa (physchem [8]): 5.4
O=C(O)c1cc(Br)ccc1O	–	1.23	3.21	-1.97	2.62	5.18	–	–
CCC(=O)c1ccc(O)cc1 [PAROXYPROPIONE]	1.66	–	–	1.81	–	–	–	logP (physchem [7]): 1.85; pKa (physchem [8]): 1
O=C(O)c1ccccc1 [BENZOIC ACID]	1.28	–	–	–	–	–	–	–
CCCC(C)C1(CC)C(=O)NC(=S)NC1=O (stereo unspecified) [THIOPENTAL]	1.7	–	–	2.44	–	–	–	logP (physchem [7]): 2.5; pKa (physchem [8]): 0.8
O=C(O)c1ccccc1O [SALICYLIC ACID]	1.08	–	2.21	–	–	–	-2.62	–
O=C(O)c1cc([N+](=O)[O-])ccc1O	0.3	0	2.21	-3.27	2.32	5.48	–	logP (physchem [7]): 1.98; pKa (physchem [8]): 4.5
